Measurements reported in patent publication US20210317140A1, “Heterocyclic Compounds and Methods of Use” (MEDIVATION TECHNOLOGIES, INC, priority 2013, published 2021).

Key:
[1] = target: T1, PI3Kδ (Homo sapiens, UniProt O00329); assay: PI3Kδ kinase assay (HTRF, PIP3 detection); assay type: biochemical; conditions: for PI3Kδ @ 0.01 μM (% Inh): 0.01 μM compound; for PI3Kδ @ 0.01 μM (% Inh) / PI3Kδ @ 0.1 μM (% Inh) / PI3Kδ @ 1 μM (% Inh): 10 μM ATP; for PI3Kδ @ 0.1 μM (% Inh): 0.1 μM compound; for PI3Kδ @ 1 μM (% Inh): 1 μM compound; for IC50: 10 dose IC50, 10 μM ATP
T1 construct: purchased Reaction Biology Corporation
T1 sequence (O00329 whole entry): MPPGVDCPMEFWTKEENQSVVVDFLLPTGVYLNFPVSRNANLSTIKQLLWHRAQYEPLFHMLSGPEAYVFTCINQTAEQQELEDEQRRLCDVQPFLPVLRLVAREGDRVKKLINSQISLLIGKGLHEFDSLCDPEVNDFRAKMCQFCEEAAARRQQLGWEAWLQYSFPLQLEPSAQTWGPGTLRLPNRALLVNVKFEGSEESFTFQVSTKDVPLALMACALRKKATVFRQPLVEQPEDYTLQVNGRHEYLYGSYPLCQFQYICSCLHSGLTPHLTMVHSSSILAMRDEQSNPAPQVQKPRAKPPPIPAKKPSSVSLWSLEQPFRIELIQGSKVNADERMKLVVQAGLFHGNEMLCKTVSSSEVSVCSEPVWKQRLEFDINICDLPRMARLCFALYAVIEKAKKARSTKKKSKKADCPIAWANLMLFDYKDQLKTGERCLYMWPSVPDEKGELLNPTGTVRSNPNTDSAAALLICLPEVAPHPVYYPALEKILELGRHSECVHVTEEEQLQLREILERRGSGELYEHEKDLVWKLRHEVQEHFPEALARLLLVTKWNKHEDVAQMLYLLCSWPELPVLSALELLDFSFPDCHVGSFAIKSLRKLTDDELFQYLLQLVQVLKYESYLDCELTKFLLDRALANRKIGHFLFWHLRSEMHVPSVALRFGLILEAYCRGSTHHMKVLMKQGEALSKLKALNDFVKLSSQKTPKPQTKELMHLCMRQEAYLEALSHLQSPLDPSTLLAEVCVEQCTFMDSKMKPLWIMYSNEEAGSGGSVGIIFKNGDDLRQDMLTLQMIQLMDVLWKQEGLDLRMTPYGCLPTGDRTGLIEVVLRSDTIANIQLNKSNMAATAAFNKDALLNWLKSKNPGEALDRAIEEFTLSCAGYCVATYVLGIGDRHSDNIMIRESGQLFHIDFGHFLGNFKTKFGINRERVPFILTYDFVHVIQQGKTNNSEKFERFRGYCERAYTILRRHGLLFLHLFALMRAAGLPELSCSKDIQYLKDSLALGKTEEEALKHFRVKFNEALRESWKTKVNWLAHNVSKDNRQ
T1 sequence (P27986 whole entry partner): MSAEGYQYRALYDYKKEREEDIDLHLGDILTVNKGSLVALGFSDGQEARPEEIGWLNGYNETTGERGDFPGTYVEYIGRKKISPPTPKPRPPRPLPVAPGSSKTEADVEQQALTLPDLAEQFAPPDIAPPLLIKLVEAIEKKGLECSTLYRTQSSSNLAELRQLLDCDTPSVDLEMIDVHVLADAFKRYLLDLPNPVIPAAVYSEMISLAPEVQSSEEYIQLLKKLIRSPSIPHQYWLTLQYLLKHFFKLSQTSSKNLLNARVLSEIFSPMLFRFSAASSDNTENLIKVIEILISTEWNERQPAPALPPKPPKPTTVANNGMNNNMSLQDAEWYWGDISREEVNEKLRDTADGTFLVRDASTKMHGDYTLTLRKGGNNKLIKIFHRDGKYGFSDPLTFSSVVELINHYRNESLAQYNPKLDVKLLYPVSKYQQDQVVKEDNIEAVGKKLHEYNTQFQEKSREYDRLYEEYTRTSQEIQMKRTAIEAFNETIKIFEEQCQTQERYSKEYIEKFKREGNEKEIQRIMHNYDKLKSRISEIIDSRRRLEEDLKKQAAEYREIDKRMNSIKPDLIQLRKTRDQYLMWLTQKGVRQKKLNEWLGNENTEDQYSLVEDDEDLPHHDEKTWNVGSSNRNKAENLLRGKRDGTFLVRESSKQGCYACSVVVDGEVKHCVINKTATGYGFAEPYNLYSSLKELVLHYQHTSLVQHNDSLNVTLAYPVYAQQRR
In short: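 10-dose HTRF assay; kinase preincubated with compound 10 min at RT, then reacted with 10 μM PIP2 and 10 μM ATP for 30 min at 30 °C in HEPES pH 7.0 buffer. PIP3 product displaces biotin-PIP3 from the Eu/APC complex; signal converted to PIP3 via standard curve, IC50 by nonlinear regression.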

[2] = target: T2, BTK (Homo sapiens, UniProt Q06187); assay: BTK kinase assay (HotSpot, 33P ATP); assay type: biochemical; conditions: for BTK @ 0.01 μM (% Inh): 0.01 μM compound; for BTK @ 0.01 μM (% Inh) / BTK @ 0.1 μM (% Inh) / BTK @ 1 μM (% Inh): 10 μM ATP; for BTK @ 0.1 μM (% Inh): 0.1 μM compound; for BTK @ 1 μM (% Inh): 1 μM compound; for IC50: 10 dose IC50, 10 μM ATP
T2 construct: purchased Reaction Biology Corporation
T2 sequence (Q06187 whole entry): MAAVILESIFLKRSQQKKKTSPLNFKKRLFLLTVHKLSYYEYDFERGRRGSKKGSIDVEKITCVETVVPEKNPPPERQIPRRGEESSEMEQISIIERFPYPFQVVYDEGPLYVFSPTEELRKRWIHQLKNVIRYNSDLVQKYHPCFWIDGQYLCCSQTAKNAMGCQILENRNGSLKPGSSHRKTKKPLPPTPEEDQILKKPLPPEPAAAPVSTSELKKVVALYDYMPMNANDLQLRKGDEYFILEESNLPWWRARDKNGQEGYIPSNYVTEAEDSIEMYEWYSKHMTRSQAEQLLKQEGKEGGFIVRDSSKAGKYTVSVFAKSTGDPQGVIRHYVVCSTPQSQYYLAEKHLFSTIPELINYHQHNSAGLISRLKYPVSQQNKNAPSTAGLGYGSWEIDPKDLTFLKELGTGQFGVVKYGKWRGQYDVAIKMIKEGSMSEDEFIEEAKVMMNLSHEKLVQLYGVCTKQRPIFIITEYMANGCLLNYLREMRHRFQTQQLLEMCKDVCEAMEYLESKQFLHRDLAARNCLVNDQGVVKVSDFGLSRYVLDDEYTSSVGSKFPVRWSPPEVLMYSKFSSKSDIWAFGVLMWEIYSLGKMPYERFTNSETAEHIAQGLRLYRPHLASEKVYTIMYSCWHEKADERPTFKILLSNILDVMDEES
In short: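 In 20 mM Hepes (pH 7.5) with 10 mM MgCl2, 1 mM EGTA, 0.1 mM Na3VO4, 2 mM DTT, 0.02% Brij35, 0.02 mg/mL BSA and 1% DMSO, kinase and substrate were exposed to ten compound doses for 15–20 min.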

Compound | PI3Kδ @ 0.01 μM (% Inh) [1] [% Inh] | PI3Kδ @ 0.1 μM (% Inh) [1] [% Inh] | BTK @ 0.01 μM (% Inh) [2] [% Inh] | BTK @ 0.1 μM (% Inh) [2] [% Inh] | PI3Kδ @ 1 μM (% Inh) [1] [% Inh] | BTK @ 1 μM (% Inh) [2] [% Inh] | IC50 [1] [nM] | IC50 [2] [nM]
Cn1ncc2c(-c3nn(C4Cc5ccccc5C4)c4ncnc(N)c34)cccc21 [Compound No. 98, 1-(2,3-dihydro-1H-inden-2-yl)-3-(1-methyl-1H-indazol-4-yl)-1H-pyrazolo[3,4-d]pyrimidin-4-amine] | 14.09 | 19.14 | 8.24 | 12.62 | – | – | – | –
NC(=O)/C=C/c1nn(C2Cc3ccccc3C2)c2ncnc(N)c12 [Compound No. 58, (2E)-3-[4-amino-1-(2,3-dihydro-1H-inden-2-yl)-1H-pyrazolo[3,4-d]pyrimidin-3-yl]prop-2-enamide] | – | 33.15 | – | 18.0 | 44.88 | 43.79 | – | –
Nc1ncnc2c1c(-c1ccc3c(c1)OCCCO3)nn2C1Cc2ccccc2C1 [Compound No. 74, 1-(2,3-dihydro-1H-inden-2-yl)-3-(3,4-dihydro-2H-1,5-benzodioxepin-7-yl)-1H-pyrazolo[3,4-d]pyrimidin-4-amine] | – | 10.99 | – | 10.82 | 65.15 | 33.05 | – | –
COc1cncc(-c2nn(C3Cc4ccccc4C3)c3ncnc(N)c23)c1 [Compound No. 61, 1-(2,3-dihydro-1H-inden-2-yl)-3-(5-methoxypyridin-3-yl)-1H-pyrazolo[3,4-d]pyrimidin-4-amine] | – | 32.36 | – | 16.63 | 71.04 | 45.41 | – | –
Cc1nc2ccc(-c3nn(C4Cc5ccccc5C4)c4ncnc(N)c34)cc2[nH]1 [Compound No. 82, 1-(2,3-dihydro-1H-inden-2-yl)-3-(2-methyl-1H-1,3-benzodiazol-6-yl)-1H-pyrazolo[3,4-d]pyrimidin-4-amine] | – | 41.76 | – | 11.64 | 82.95 | 30.18 | – | –
Nc1ncnc2c1c(N1CCOCC1)nn2C1Cc2ccccc2C1 [Compound No. 48, 1-(2,3-dihydro-1H-inden-2-yl)-3-(morpholin-4-yl)-1H-pyrazolo[3,4-d]pyrimidin-4-amine] | – | 7.12 | – | 1.56 | 11.95 | 16.21 | – | –
Nc1ncnc2c1c(-c1cc(O)cc(F)c1)nn2C1CCCc2ccccc21 (stereo not shown) [compound 11, 3-(4-amino-1-tetralin-1-yl-pyrazolo[3,4-d]pyrimidin-3-yl)-5-fluoro-phenol] | – | 45.08 | – | 22.06 | – | – | – | –
CCOc1cc(-c2nn(C3Cc4ccccc4C3)c3ncnc(N)c23)cc(Cl)c1OC(C)C [Compound No. 79, 3-[3-chloro-5-ethoxy-4-(propan-2-yloxy)phenyl]-1-(2,3-dihydro-1H-inden-2-yl)-1H-pyrazolo[3,4-d]pyrimidin-4-amine] | – | 6.45 | – | 7.61 | 12.1 | 9.02 | – | –
COc1cc(-c2nn(C3Cc4ccccc4C3)c3ncnc(N)c23)cc(Cl)c1OC [Compound No. 80, 3-(3-chloro-4,5-dimethoxyphenyl)-1-(2,3-dihydro-1H-inden-2-yl)-1H-pyrazolo[3,4-d]pyrimidin-4-amine] | – | 5.1 | – | 45.74 | 29.99 | 68.21 | – | –
COc1ccc(-c2nn(C3Cc4ccccc4C3)c3ncnc(N)c23)c(OC)c1OC [Compound No. 83, 1-(2,3-dihydro-1H-inden-2-yl)-3-(2,3,4-trimethoxyphenyl)-1H-pyrazolo[3,4-d]pyrimidin-4-amine] | – | −5.17 | – | 10.79 | 13.54 | 18.4 | – | –
Nc1cc(-c2nn(C3Cc4ccccc4C3)c3ncnc(N)c23)ccc1F [Compound No. 87, 3-(3-amino-4-fluorophenyl)-1-(2,3-dihydro-1H-inden-2-yl)-1H-pyrazolo[3,4-d]pyrimidin-4-amine] | 13.47 | 8.16 | 34.28 | 78.95 | – | – | – | –
Nc1ncnc2c1c(-c1cccc(CO)c1)nn2C1Cc2ccccc2C1 [Compound No. 54, {3-[4-amino-1-(2,3-dihydro-1H-inden-2-yl)-1H-pyrazolo[3,4-d]pyrimidin-3-yl]phenyl}methanol] | – | 22.41 | – | 27.64 | 72.03 | 72.19 | 924 | 840

The remaining lines, values ahead:

PI3Kδ @ 0.01 μM (% Inh) [1] [% Inh] | PI3Kδ @ 0.1 μM (% Inh) [1] [% Inh] | BTK @ 0.01 μM (% Inh) [2] [% Inh] | BTK @ 0.1 μM (% Inh) [2] [% Inh] | PI3Kδ @ 1 μM (% Inh) [1] [% Inh] | BTK @ 1 μM (% Inh) [2] [% Inh] | IC50 [1] [nM] | IC50 [2] [nM] | Compound
– | 11.3 | – | 13.50 | – | – | 1490 | 877 | C=CC(=O)N1CC(n2nc(-c3cnc(OC)c(F)c3)c3c(N)ncnc32)Cc2cc(C)ccc21 (stereo not shown) [compound 32, 1-(3-(4-amino-3-(5-fluoro-6-methoxypyridin-3-yl)-1H-pyrazolo[3,4-d]pyrimidin-1-yl)-6-methyl-3,4-dihydroquinolin-1 (2H)-yl)prop-2-en-1-one]
– | 7.33 | – | 15.94 | – | – | – | – | Nc1ncnc2c1c(-c1ccc3cc[nH]c3c1)nn2C1CCCc2ccccc21 (stereo not shown) [compound 38, 3-(1H-indol-6-yl)-1-(1,2,3,4-tetrahydronaphthalen-1-yl)-1H-pyrazolo[3,4-d]pyrimidin-4-amine]
−2.71 | 5.54 | −7.89 | −6.05 | – | – | – | – | NCc1ccc(-c2nn(C3Cc4ccccc4C3)c3ncnc(N)c23)cc1 [compound 138, 3-[4-(aminomethyl)phenyl]-1-(2,3-dihydro-1H-inden-2-yl)-1H-pyrazolo[3,4-d]pyrimidin-4-amine]
– | 73.20 | – | 41.05 | 98.33 | 82.76 | 65.7 | 422 | Nc1ncnc2c1c(-c1cc(O)cc(F)c1)nn2C1Cc2cc(F)ccc2C1=O (stereo not shown) [compound 51, 2-[4-amino-3-(3-fluoro-5-hydroxyphenyl)-1H-pyrazolo[3,4-d]pyrimidin-1-yl]-5-fluoro-2,3-dihydro-1H-inden-1-one]
– | 51.63 | – | 23.12 | – | – | – | – | COc1ccc(-c2nn(C3CCc4ccccc43)c3ncnc(N)c23)cc1OC (stereo not shown) [compound 34, 1-(2,3-dihydro-1H-inden-1-yl)-3-(3,4-dimethoxyphenyl)-1H-pyrazolo[3,4-d]pyrimidin-4-amine]
6.28 | 45.54 | 87.65 | 96.31 | – | – | – | – | Nc1ncnc2c(C3Cc4ccccc4C3)cn(-c3cc(O)c(F)c(F)c3)c12 [compound 137, 5-[4-amino-7-(2,3-dihydro-1H-inden-2-yl)-5H-pyrrolo[3,2-d]pyrimidin-5-yl]-2,3-difluorophenol]
